B1: NRG protein: novel nourseothricin N-acetyltransferase, amino acid sequence of SEQ ID NO. 1; confers resistance to nourseothricin (protein)
chain: MTTLDDTAYRYRTSVPGDAEAIEALDGSFTTDTVFRVTATGDGFTLREVPVDPPLTKVFPDDESDDESDDGEDGDPDSRTFVAYGDDGDLAGFVVVSYSGWNRRLTVEDIEVAPEHRGHGVGRALMGLATEFARERGAGHLWLEVTNVNAPAIHAYRRMGFTLCGLDTALYDGTASDGEQALYMSMPCP
modifications: Novel protein conferring resistance to the antibiotic known as nourseothricin

What was measured:
[1] = tested on: rice callus, derived from immature rice embryos of the variety TP309; assay: Dose response of clonNAT on rice callus growth and survival; format: cell-based; conditions: 26° C. in the dark
Experimental: a) Dose response. For selection of transgenic calli based on resistance to clonNAT following Agrobacterium-mediated transformation of rice callus material, a dose response experiment is made to determine the concentration of clonNAT in callus growth medium in order to inhibit the growth of rice callus, or to kill the rice cells. Growth media (GM) used for rice callus comprise the following basic components: N6 salts (Duchefa) 3.95 g/l; B5 vitamins (Duchefa) 112 mg/l; proline (Duchefa) 500 mg/l; glutamine (Duchefa) 500 mg/l; casein hydrolysate (Duchefa) 500 mg/l. […]
Several pieces of rice callus, derived from immature rice embryos of the variety TP309 (National Small Grain Collection, USDA, ARS, Aberdeen, Id.) are put on these plates, the plates are incubated at 26° C. in the dark, and survival of the embryos and proliferation of the embryo cells are observed every day. Based on the survival rate of the embryos on the media plates containing different concentrations of clonNAT, a useful concentration of clonNAT for selection of transgenic rice is determined to be within a range of about 20 to about 1000 mg/l or more, preferably about 200 mg/l or less. […]

[2] = tested on: wildtype Arabidopsis thaliana; assay: Dose response of clonNAT sprayed on wildtype Arabidopsis thaliana seedlings; format: in vivo; conditions: sprayed on three consecutive days with 0.005% Silwet L-77; assessed 36 hours after last spray
Experimental: a) Dose response. The selection conditions for plants that are transgenic with the nrg gene are determined in a dose response experiment. From about 2000 to 3000 wildtype Arabidopsis thaliana seeds per pot are sown in 5″×5″ (13 cm×13 cm) soil pots. When the first true leaves of the seedlings have emerged after approximately 7 days, the seedlings are sprayed with a hand-held sprayer until all leaf material is completely wet on three consecutive days with a solution of 0.005% Silwet L-77 (50 ul/l) in water and variable concentrations of clonNAT (1, 5, 10, 20, 50, 100, 250, 500 mg/l). The results are assessed 36 hours after the last spray. A useful range of concentration of clonNAT for selection of transgenic Arabidopsis plants (as assessed as concentrations that kill non-transgenic Arabidopsis plants after applying the described sprayings) is determined within a range of about 20 to about 1000 mg/l or more, preferably about 200 mg/l or less.

[3] = Ability of NRG protein to impart resistance to nourseothricin; conditions: NRG protein with aspartate instead of glycine at position 70

Row | Molecule | preferred concentration of clonNAT for selection of transgenic rice ([1]; callus growth medium plates, based on survival rate of embryos) [mg/L] | fate of embryo-derived rice callus on clonNAT-containing medium plates ([1]; clonNAT 200 mg/l selection plates, after 4-5 weeks) | preferred concentration of clonNAT for selection of transgenic Arabidopsis plants [2] [mg/L] | ability to impart resistance to the nourseothricin antibiotic [3]
1 | 2-[4-O-Carbamoyl-2-deoxy-2-(3,6-diaminohexan-amido)-B-D-gulopyranoslamino)-3,3a,5 ,6,7,7a-hexahydro-5-hydroxy-4H-imidazo[4,5-c]pyridin-4one dihydrogensulphate [clonNAT] | ≤ 200 | died | ≤ 200 | –
2 | B1 | – | – | – | retains the ability to impart resistance
